Laboratory results as given in ChEMBL document CHEMBL1201862, “PubChem BioAssay data set” (2004).
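Five concentrations, 48 hours, 96-well plates. The concentration for 50% growth inhibition is given as GI50.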 Calls of active or inactive are those of the source. Cut-off read from the data, not from the text of the source: active = GI50 up to about 1.1 µM and inactive = higher.

Key:
Assay in all cases: NCI anticancer screen, dose series, 48 h
[1] = system: LOX IMVI
[2] = system: 786-0
[3] = system: PC-3
[4] = system: SNB-19
[5] = system: UACC-257
[6] = system: DU-145
[7] = system: SF-295
[8] = system: MDA-N
[9] = system: MCF7
[10] = system: M14
[11] = system: IGROV-1
[12] = system: HCT-116
[13] = system: SK-MEL-5
[14] = system: NCI/ADR-RES
[15] = system: NCI-H522
[16] = system: Hs-578T
[17] = system: UO-31
[18] = system: T47D
[19] = system: K562

Measured: GI50

COc1cc(O)c2c(=O)c(OC)c(-c3ccc4c(c3)OCO4)oc2c1
inactive: [1] > 23.2 µM | [2] 15.3 µM | [3] > 100 µM | [4] 5.66 µM | [5] > 100 µM | [6] > 100 µM | [7] 14.4 µM | [8] > 100 µM | [9] > 100 µM | [10] > 85.1 µM | [11] > 52 µM | [12] > 44.4 µM | [13] > 35.6 µM | [14] > 100 µM | [15] 6.53 µM | [16] 21.6 µM | [17] > 100 µM | [18] > 100 µM

CC(=O)CC(=O)N1CCOC1=O
inactive: [19] > 10 µM | [1] > 10 µM | [2] > 10 µM | [3] > 10 µM | [4] > 10 µM | [5] > 10 µM | [6] > 10 µM | [7] > 10 µM | [8] > 10 µM | [9] > 10 µM | [10] > 10 µM | [11] > 10 µM | [12] > 10 µM | [13] > 10 µM | [14] > 10 µM | [16] > 10 µM | [17] > 10 µM | [18] > 10 µM

COC(CNC(=O)C(C)NC(=O)CCc1ccccc1)OC (stereo not given)
inactive: [19] > 100 µM | [2] > 100 µM | [3] > 100 µM | [4] > 100 µM | [5] > 100 µM | [6] > 100 µM | [7] > 100 µM | [8] > 100 µM | [9] > 100 µM | [10] > 100 µM | [11] > 100 µM | [12] > 100 µM | [13] > 100 µM | [14] > 100 µM | [15] > 100 µM | [16] > 100 µM | [17] > 100 µM | [18] > 100 µM

CC(C)C1C(=O)N2CCCC2C2(O)OC(NC(=O)C3C=C4c5cccc6[nH]cc(c56)CC4N(C)C3)(C(C)C)C(=O)N12 (stereo not given)
inactive: [1] 18.1 µM | [2] 17.9 µM | [3] 21.1 µM | [4] 44.4 µM | [5] 28.7 µM | [6] 35.4 µM | [7] 28.2 µM | [8] 25 µM | [9] 35.8 µM | [10] 23.8 µM | [11] 14.9 µM | [12] 17.9 µM | [13] 20.6 µM | [14] 21.1 µM | [15] 21 µM | [16] 22.5 µM | [17] 13.5 µM | [18] 47.6 µM

CC(=O)c1nc(C#N)c(N)o1
inactive: [19] > 100 µM | [1] > 100 µM | [2] > 100 µM | [3] > 100 µM | [4] > 100 µM | [5] > 100 µM | [6] > 100 µM | [7] > 100 µM | [8] > 100 µM | [9] > 100 µM | [10] > 100 µM | [11] > 100 µM | [12] > 100 µM | [14] > 100 µM | [15] > 100 µM | [16] > 100 µM | [17] > 100 µM | [18] > 100 µM

CCOC(=O)/C(C)=C\[C@@]1(C)O[C@@H](C)[C@@](C)(OC(C)=O)[C@@H]1OC(C)=O
inactive: [19] 38.6 µM | [1] 71 µM | [2] 63.5 µM | [3] 36.6 µM | [4] > 100 µM | [5] 28.2 µM | [6] 37.1 µM | [7] 36.8 µM | [8] 44.5 µM | [9] 23 µM | [10] 61.5 µM | [11] 37.7 µM | [12] 40.9 µM | [13] 33.8 µM | [14] 30.2 µM | [15] 25.2 µM | [16] 27 µM | [18] 19.9 µM

COCN1C(=O)[C@@H]2CCCN2C(=O)c2cc(N)ccc21
inactive: [1] > 100 µM | [2] > 100 µM | [3] > 100 µM | [4] > 100 µM | [5] > 100 µM | [6] > 100 µM | [7] > 100 µM | [8] > 100 µM | [9] > 100 µM | [10] > 100 µM | [11] > 100 µM | [12] > 100 µM | [14] > 100 µM | [15] > 100 µM | [16] > 100 µM | [17] > 100 µM | [18] > 100 µM

CCCCSC1=N/C(=C\c2ccccc2O)C(=O)N1
inactive: [19] 78.3 µM | [1] 84.3 µM | [2] 69.7 µM | [3] 23.4 µM | [4] 77.8 µM | [5] 31.2 µM | [6] > 100 µM | [7] 92 µM | [8] 76 µM | [9] 33.5 µM | [10] 71.6 µM | [11] > 100 µM | [12] 40.3 µM | [14] 66.7 µM | [15] 69 µM | [16] > 100 µM | [17] 21.6 µM | [18] 32.7 µM

CC(=O)OCC1OC(n2cnc(C(N)=S)c2N)C(OC(C)=O)C1OC(C)=O (stereo not given)
inactive: [1] > 100 µM | [2] > 100 µM | [3] > 100 µM | [4] > 100 µM | [5] > 100 µM | [6] > 100 µM | [7] > 100 µM | [8] > 100 µM | [9] > 100 µM | [10] > 100 µM | [11] > 100 µM | [12] > 100 µM | [13] > 100 µM | [14] > 100 µM | [15] > 100 µM | [16] > 100 µM | [17] > 100 µM | [18] > 100 µM

COc1ccc(C2=Nn3c(nc4sc5c(c4c3=O)CCCC5)SC2)cc1
inactive: [19] > 100 µM | [1] > 100 µM | [2] > 100 µM | [3] > 100 µM | [5] > 100 µM | [6] > 100 µM | [7] > 100 µM | [8] > 100 µM | [9] > 100 µM | [11] > 100 µM | [12] > 100 µM | [13] > 100 µM | [14] > 100 µM | [15] > 100 µM | [16] 70.6 µM | [17] > 100 µM | [18] > 100 µM

Cn1nc2ccc([N+](=O)[O-])cc2[n+]1[O-]
inactive: [19] > 100 µM | [2] > 100 µM | [3] > 100 µM | [4] > 100 µM | [5] > 100 µM | [6] > 100 µM | [7] > 100 µM | [8] 90.4 µM | [9] > 100 µM | [10] > 100 µM | [11] > 100 µM | [12] > 100 µM | [13] > 100 µM | [14] > 100 µM | [15] > 100 µM | [16] > 100 µM | [17] > 100 µM | [18] > 100 µM

COc1nc(N)nc2c1n(C)c[n+]2C
inactive: [19] > 100 µM | [1] > 100 µM | [2] > 100 µM | [3] > 100 µM | [4] > 100 µM | [5] > 100 µM | [6] > 100 µM | [7] > 100 µM | [8] > 100 µM | [10] > 100 µM | [11] > 100 µM | [12] > 100 µM | [13] > 100 µM | [14] > 100 µM | [15] > 100 µM | [16] > 100 µM | [17] > 100 µM | [18] > 100 µM

COC(=O)c1ccccc1/C=C1/Cc2cccc(C)c2C1=O
inactive: [19] > 100 µM | [1] > 100 µM | [2] 36.2 µM | [3] > 100 µM | [5] > 100 µM | [6] > 100 µM | [7] 42 µM | [8] > 100 µM | [9] > 100 µM | [11] > 100 µM | [12] > 100 µM | [13] 32.8 µM | [14] > 100 µM | [15] > 100 µM | [16] 39.7 µM | [17] > 100 µM | [18] 42.5 µM

CCN1C(=O)C(=C/C=C/c2ccc(OC)cc2)C(=O)N(CC)C1=S
inactive: [19] 31.3 µM | [1] 17.3 µM | [2] 17.6 µM | [3] 19.4 µM | [4] 37.9 µM | [5] 16 µM | [6] 19.1 µM | [7] 60.4 µM | [8] 18.2 µM | [9] 33.8 µM | [10] 22.1 µM | [11] 16.3 µM | [12] 17.8 µM | [13] 26.5 µM | [14] 13.8 µM | [16] 15.7 µM | [17] 40.3 µM | [18] > 100 µM

Clc1ccccc1-c1nc(-c2ccncc2)no1 [PIFEXOLE]
inactive: [19] 26.6 µM | [2] > 100 µM | [3] 78 µM | [4] 96.2 µM | [5] 37.8 µM | [6] 87.9 µM | [7] 36.5 µM | [8] 49.3 µM | [9] 30 µM | [10] 62.2 µM | [11] 71.3 µM | [12] 43.4 µM | [13] 22.9 µM | [14] 30.9 µM | [15] 25.8 µM | [16] 36.6 µM | [17] 47.4 µM | [18] 29.2 µM

O=c1ccc2[n+]([O-])c3ccc(O)cc3oc-2c1 [RESAZURIN]
inactive: [19] 10.5 µM | [1] 3.44 µM | [2] 12.5 µM | [3] 7.23 µM | [5] 11.2 µM | [6] 15.9 µM | [7] 7.41 µM | [8] 1.84 µM | [9] 4.95 µM | [10] 7.83 µM | [11] 25.2 µM | [12] 16.7 µM | [13] 2.72 µM | [14] 13.4 µM | [15] 12.1 µM | [16] 7.53 µM | [17] 1.93 µM | [18] 56.4 µM
